Biological target: T1, Bcl-2-related protein A1 (Mus musculus, UniProt Q07440)
T1 sequence (Q07440 whole entry): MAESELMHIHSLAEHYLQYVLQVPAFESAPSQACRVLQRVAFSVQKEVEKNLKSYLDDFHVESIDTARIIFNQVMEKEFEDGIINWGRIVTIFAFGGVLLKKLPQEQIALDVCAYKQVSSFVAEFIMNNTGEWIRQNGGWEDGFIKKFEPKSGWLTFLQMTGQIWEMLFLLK
Assay: displacement of Bid BH3 peptide from Bfl-1 – biochemical, fluorescence polarization, FITC-Bid, mouse, primary screen (AID 432)
Conditions: pH 7; 23 °C

| Structure (SMILES) | IC50 [µM] |
| --- | --- |
| c1ccc(-c2ccc(C3=Nc4ncnn4C(c4ccco4)C3)cc2)cc1 (stereo not drawn) | > 100 |
| O=C1C(=O)N(c2ncccn2)C(c2cccc(Cl)c2)C1C(=O)c1ccco1 (stereo not drawn) [2-(3-chlorophenyl)-3-(furan-2-carbonyl)-4-hydroxy-1-pyrimidin-2-yl-2H-pyrrol-5-one] | > 100 |
| OCCCc1nc2n(n1)C(c1cccs1)CC(c1ccccc1)=N2 (stereo not drawn) [3-(5-phenyl-7-thiophen-2-yl-1,7-dihydro-[1,2,4]triazolo[1,5-a]pyrimidin-2-yl)-1-propanol] | > 100 |
| COc1ccc(N2C(=O)C(=Nc3c(C)n(C)n(-c4ccccc4)c3=O)C(Cl)C2=O)cc1 (stereo not drawn) [3-chloranyl-4-[(1,5-dimethyl-3-oxidanylidene-2-phenyl-pyrazol-4-yl)amino]-1-(4-methoxyphenyl)pyrrole-2,5-dione] | > 100 |
| CCCN1CCC2=C(C#N)C(=N)C(C#N)(C#N)C(c3cccc(OC)c3OC)C2C1 (stereo not drawn) [6-amino-8-(2,3-dimethoxyphenyl)-2-propyl-1,3,8,8a-tetrahydroisoquinoline-5,7,7-tricarbonitrile] | > 100 |
| CN1CCC2=C(C#N)C(=N)C(C#N)(C#N)C(c3cccc(Cl)c3Cl)C2C1 (stereo not drawn) [6-azanyl-8-[2,3-bis(chloranyl)phenyl]-2-methyl-1,3,8,8a-tetrahydroisoquinoline-5,7,7-tricarbonitrile] | > 100 |
| CN1CCC2=C(C#N)C(=N)C(C#N)(C#N)[C@H](c3cccc(Cl)c3)C2C1 (stereo partly drawn) [(8S)-6-amino-8-(3-chlorophenyl)-2-methyl-1,3,8,8a-tetrahydroisoquinoline-5,7,7-tricarbonitrile] | > 100 |
| Cc1ccc(C2C3CN(C(C)C)CCC3=C(C#N)C(=N)C2(C#N)C#N)cc1 (stereo not drawn) [SMR000034220] | > 100 |

Reference: BindingDB's records for doi:10.7270/Q2N014W6 (Burnham Center for Chemical Genomics, 2008)
